For data set [1], the target named is Influenza A (H1N1) neuraminidase (Influenza A virus, UniProt P03468). Put plainly: biochemical.
The target of data set [2] is Influenza A (H3N2) neuraminidase (Influenza A virus, UniProt P03482). Put plainly: biochemical.
For data set [3], the target named is Influenza B neuraminidase (Influenza B virus, UniProt P03474). Put plainly: biochemical.
The next data set deals with fowl plague viral NA. The following applies: result in words; cited from earlier work.
The test system of another data set is A. ureafaciens NA. Conditions: after 22 hrs; cited from earlier work.
Another data set has as its system C. perfrinqens NA. Conditions: after 22 hrs; cited from earlier work.
The next data set has as its target V cholera NA (Vibrio cholerae serotype O1, UniProt P0C6E9). Conditions: after 22 hrs; cited from earlier work.

Chain of Influenza A (H1N1) neuraminidase (P03468 whole entry, looked up): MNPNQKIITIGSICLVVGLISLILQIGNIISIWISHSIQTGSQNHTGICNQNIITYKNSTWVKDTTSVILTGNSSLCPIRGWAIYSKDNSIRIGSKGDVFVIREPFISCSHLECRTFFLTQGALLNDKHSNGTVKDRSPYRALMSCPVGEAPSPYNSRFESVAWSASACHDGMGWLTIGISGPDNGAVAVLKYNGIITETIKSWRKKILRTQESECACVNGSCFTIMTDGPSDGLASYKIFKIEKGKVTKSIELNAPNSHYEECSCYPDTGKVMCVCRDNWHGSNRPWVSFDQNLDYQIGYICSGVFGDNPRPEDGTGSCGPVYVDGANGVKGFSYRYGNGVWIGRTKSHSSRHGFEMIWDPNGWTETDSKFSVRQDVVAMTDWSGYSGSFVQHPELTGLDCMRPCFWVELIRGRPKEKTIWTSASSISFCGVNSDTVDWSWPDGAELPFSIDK
Chain of Influenza A (H3N2) neuraminidase (P03482 whole entry, looked up): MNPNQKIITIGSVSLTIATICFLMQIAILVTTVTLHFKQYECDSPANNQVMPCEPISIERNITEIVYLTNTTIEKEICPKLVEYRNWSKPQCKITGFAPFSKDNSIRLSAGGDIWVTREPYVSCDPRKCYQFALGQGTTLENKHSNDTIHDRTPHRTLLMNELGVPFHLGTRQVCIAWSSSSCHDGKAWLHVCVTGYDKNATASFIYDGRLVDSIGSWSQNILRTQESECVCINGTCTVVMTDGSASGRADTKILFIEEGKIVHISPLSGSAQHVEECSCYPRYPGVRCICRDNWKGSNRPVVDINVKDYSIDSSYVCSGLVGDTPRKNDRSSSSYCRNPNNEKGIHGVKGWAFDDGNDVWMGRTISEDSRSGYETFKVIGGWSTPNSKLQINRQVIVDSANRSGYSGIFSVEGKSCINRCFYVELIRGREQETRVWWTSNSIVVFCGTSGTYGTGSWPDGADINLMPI
Chain of Influenza B neuraminidase (P03474 whole entry, looked up): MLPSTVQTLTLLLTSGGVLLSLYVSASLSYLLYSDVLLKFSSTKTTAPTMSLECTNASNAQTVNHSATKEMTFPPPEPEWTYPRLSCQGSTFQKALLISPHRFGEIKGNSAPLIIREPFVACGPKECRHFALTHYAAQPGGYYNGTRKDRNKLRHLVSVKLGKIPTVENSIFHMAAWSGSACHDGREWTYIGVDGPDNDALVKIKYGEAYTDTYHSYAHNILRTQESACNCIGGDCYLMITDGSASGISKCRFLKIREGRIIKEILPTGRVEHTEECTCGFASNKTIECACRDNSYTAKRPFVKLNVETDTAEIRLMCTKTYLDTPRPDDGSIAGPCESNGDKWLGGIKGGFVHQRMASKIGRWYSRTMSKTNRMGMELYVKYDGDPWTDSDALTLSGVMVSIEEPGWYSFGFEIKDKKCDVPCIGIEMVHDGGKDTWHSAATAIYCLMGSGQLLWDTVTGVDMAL
Chain of V cholera NA (P0C6E9 25-781 limits assumed): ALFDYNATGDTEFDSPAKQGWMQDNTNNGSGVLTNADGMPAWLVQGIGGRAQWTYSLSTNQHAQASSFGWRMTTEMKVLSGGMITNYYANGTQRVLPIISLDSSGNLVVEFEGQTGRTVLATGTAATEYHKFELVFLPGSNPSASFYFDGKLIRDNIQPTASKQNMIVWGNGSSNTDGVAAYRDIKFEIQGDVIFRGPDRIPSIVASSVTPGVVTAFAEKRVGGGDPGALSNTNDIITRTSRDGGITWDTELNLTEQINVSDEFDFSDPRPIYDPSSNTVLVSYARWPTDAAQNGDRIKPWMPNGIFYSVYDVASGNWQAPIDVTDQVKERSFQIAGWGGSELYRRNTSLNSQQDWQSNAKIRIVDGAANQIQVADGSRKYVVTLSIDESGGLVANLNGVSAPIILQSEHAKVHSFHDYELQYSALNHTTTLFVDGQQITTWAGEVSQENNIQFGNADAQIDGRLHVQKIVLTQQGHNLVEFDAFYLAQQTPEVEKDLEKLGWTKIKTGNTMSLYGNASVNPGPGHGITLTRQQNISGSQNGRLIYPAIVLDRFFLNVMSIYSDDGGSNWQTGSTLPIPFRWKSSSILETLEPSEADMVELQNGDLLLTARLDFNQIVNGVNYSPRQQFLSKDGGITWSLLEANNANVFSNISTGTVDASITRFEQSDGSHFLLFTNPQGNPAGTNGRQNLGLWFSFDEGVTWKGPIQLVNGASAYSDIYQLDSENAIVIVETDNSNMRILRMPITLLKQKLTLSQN

For orientation: Ki means a measure of affinity in units of concentration, obtained from inhibition or displacement. The low end stands for higher affinity, the high end for lower affinity. Take `CC(=O)N[C@@H]1CCC(O)(C(=O)O)O[C@H]1[C@H](O)[C@H](O)CO` (stereo partly drawn) [4-deoxy Neu5Ac, 4-deoxy-N-acetylneuraminic acid]: the Ki in data set [1] is 998 µM; in data set [2] it was 2.2 mM; in data set [3] it was 1.05 mM.

In the case of `CO[C@H]1CC(O)(C(=O)O)O[C@@H]([C@H](O)[C@H](O)CO)[C@@H]1NC(C)=O` (stereo partly drawn) [4-methoxy Neu5Ac, 4-methoxy-N-acetylneuraminic acid], the substrate quality result in the data set with fowl plague viral NA was “excellent substrate”.

Turning to `CC(=O)N[C@H]1[C@H]([C@H](O)[C@H](O)CO)OC(O)(C(=O)O)C[C@@H]1O` (stereo partly drawn) [Neu5Ac, N-acetylneuraminic acid], the Ki in data set [1] was 626 µM.

In the case of `CC(=O)NC1C(O)CC(OCc2ccccc2)(C(=O)O)OC1C(O)C(O)CO` [benzyl-alpha-glycosides of N-acetyl-4-epi-D-neuraminic acid], the substrate cleaved with A. ureafaciens NA is given as 50%; with C. perfrinqens NA, 100%; on V cholera NA, 11%.

For the compound `COC1(C(=O)O)CCC(NC(C)=O)C(C(O)C(O)CO)O1` (stereo not drawn) [methyl-alpha-glycoside of 4-deoxy Neu5Ac], the substrate quality result in the data set with fowl plague viral NA is “good substrate”.

(Values after patent EP0507854B1 (priority 1989, dated 1991).)
